Literature values, collected in patent EP0353388A2, “Floor treatment product” (DYNA-5, INC., priority 1988, dated 1990).

Conditions: first dissociation constant of the acid

Structure (SMILES)	first pK value (pK^I)
O=C(O)CN(CCN(CC(=O)O)CC(=O)O)CC(=O)O [ethylenediaminetetraacetic acid]	2.00
O=C(O)C(=O)O [oxalic acid]	1.25
